Test results reported in ChEMBL document CHEMBL1201862, “PubChem BioAssay data set” (2004).
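Results reflect a 48-hour exposure of cells in 96-well plates to compound at five concentrations. GI50 = concentration required for 50% inhibition of growth.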 Active and inactive are the calls of the source. Cut-off read from the data, not from the text of the source: active = GI50 up to about 1.1 µM and inactive = higher.

What was measured:
Test in all cases: growth of human tumour cells (NCI), 48 h
NCI-H460 = test system: NCI-H460
SNB-19 = test system: SNB-19
DMS-273 = test system: DMS-273
SN12C = test system: SN12C
IGROV-1 = test system: IGROV-1
M19-MEL = test system: M19-MEL
SK-MEL-28 = test system: SK-MEL-28
MOLT-4 = test system: MOLT-4
HL-60 = test system: HL-60
A498 = test system: A498
SK-MEL-5 = test system: SK-MEL-5
U-251 = test system: U-251
OVCAR-8 = test system: OVCAR-8
SF-295 = test system: SF-295
TK-10 = test system: TK-10
DMS-114 = test system: DMS-114
M14 = test system: M14
HOP-92 = test system: HOP-92
NCI-H226 = test system: NCI-H226
SR = test system: SR

Measured: GI50

OC(c1ccccc1)C1CC2C=CC1C2 (configuration not stated)
inactive: NCI-H460 > 100 µM | SNB-19 > 100 µM | DMS-273 > 100 µM | SN12C > 100 µM | IGROV-1 > 100 µM | M19-MEL > 100 µM | SK-MEL-28 > 100 µM | MOLT-4 > 100 µM | HL-60 > 100 µM | A498 > 100 µM | SK-MEL-5 > 100 µM | U-251 > 100 µM | OVCAR-8 > 100 µM | SF-295 > 100 µM | TK-10 > 100 µM | DMS-114 > 100 µM | M14 > 100 µM | HOP-92 > 100 µM

COc1ccc(N2C(=O)C3c4[nH]c5c(C)cccc5c4C4CCC(C(C)(C)C)CC4C3C2=O)cc1 (configuration not stated)
inactive: NCI-H460 2.83 µM | SNB-19 > 10 µM | SN12C 8.79 µM | NCI-H226 > 10 µM | IGROV-1 > 10 µM | SR 3.44 µM | SK-MEL-28 > 10 µM | MOLT-4 3.47 µM | HL-60 3.3 µM | A498 > 10 µM | SK-MEL-5 > 10 µM | U-251 > 10 µM | OVCAR-8 > 10 µM | SF-295 > 10 µM | TK-10 9.14 µM | M14 > 10 µM

OC12c3ccccc3C1CCCCCCCCCC21OCCCO1 (configuration not stated)
inactive: SNB-19 > 100 µM | DMS-273 > 100 µM | SN12C > 100 µM | NCI-H226 > 100 µM | IGROV-1 > 100 µM | SR 4.73 µM | M19-MEL > 100 µM | SK-MEL-28 > 100 µM | HL-60 4.15 µM | SK-MEL-5 > 100 µM | OVCAR-8 > 100 µM | SF-295 > 100 µM | TK-10 > 100 µM | DMS-114 > 100 µM | M14 > 100 µM

CCN(CC)CCC(=O)c1ccccc1
inactive: NCI-H460 30.8 µM | SNB-19 > 100 µM | DMS-273 18.5 µM | SN12C 19.3 µM | NCI-H226 > 100 µM | IGROV-1 > 100 µM | SR 14 µM | M19-MEL 25.6 µM | SK-MEL-28 16.9 µM | MOLT-4 19.2 µM | HL-60 12.6 µM | SK-MEL-5 91 µM | U-251 23.3 µM | OVCAR-8 24.2 µM | TK-10 21.3 µM | DMS-114 20.3 µM | M14 16.8 µM | HOP-92 13.1 µM

COc1cc(O)c2c(=O)c(O)c(-c3ccc(O)c(O)c3)oc2c1 [RHAMNETIN]
inactive: NCI-H460 4.25 µM | SNB-19 12.2 µM | IGROV-1 40.3 µM | SR 13.3 µM | SK-MEL-28 6.76 µM | MOLT-4 6.95 µM | HL-60 2.78 µM | A498 3.68 µM | SK-MEL-5 10.5 µM | U-251 4.86 µM | OVCAR-8 10.7 µM | SF-295 21.2 µM | TK-10 21.4 µM | M14 5.15 µM | HOP-92 10.5 µM
